Data on six compounds can be found in patent publication US12433896B2, “Deuterated analogs of etifoxine, their derivatives and uses thereof” (GABA Therapeutics Inc., priority 2015, dated 2025).

What is called half-life is the time in which the quantity being followed falls by half. For orientation: Cmax means the maximum level reached in the sampled fluid or tissue.

Data set [1] is described as follows: liver human microsomes stability study. The data set is classed as in vitro ADME. The note with it: for half-life at 0.1 μM: human, liver microsomes. How it is done:
(§1) Compounds were evaluated for liver microsome metabolic stability at Eurofins/Cerep (St. Charles, MO). […] Test compounds at a concentration of 0.1 μM were incubated for up to 60 minutes in duplicate. The microsomal protein concentration was 0.1 mg/mL. The parent compound was detected by HPLC-MS/MS analysis. The percent compound remaining was calculated by comparing the peak area of the parent compound at each time point to time zero. Half-life was estimated from the slope of the initial linear range of the logarithmic curve of parent compound remaining vs. time, assuming first order kinetics. The apparent intrinsic clearance was further calculated from the half-life value for assays with microsomes.
A general note: Microsomes from liver hold many membrane-bound enzymes, among them those of drug oxidation.

The nature of data set [2]: rat liver microsomes stability study. In kind it is in vitro ADME. The settings on record: for half-life at 0.1 μM: rat, liver microsomes. How it is done: as §1
The conditions of data set [3]: cited from earlier work.
Data set [4] is described as follows: pharmacokinetics in male Sprague-Dawley rats after oral gavage. The data set is classed as in vivo. The note with it: PO 50 mg/kg; for Cmax / AUC(0-t): rat, male Sprague-Dawley rats, plasma, average N=3, 70/30 Saline/PEG400; for AUC(0-t): read-out: AUC0-12. How it is done:
Compounds were evaluated for pharmacokinetic profiles in male Sprague-Dawley rats at Shanghai Chempartner, Shanghai, China. Etifoxine hydrochloride and the hydrochloride salt of the compound described in example 1 were dosed to Sprague-Dawley rats via oral gavage (PO). Each compound was administered at a dose of 50 mg/kg to three rats (N=3 rats/compound; total 6 rats in the study). Each compound was formulated in 70/30 Saline/PEG400 at a concentration of 5 mg/mL (10 mL/kg injection volume/rat). Blood samples were collected from each rat at 10, 20, 30, 45 minutes and 1, 2,4 and 12 hours post-dose. Blood samples were put on ice and centrifugated to obtain plasma. Plasma samples were analyzed for concentrations of the dosed compound at each time point by LC-MS/MS using an AB-Sciex API-400 mass spectrometer. The lower limit of quantitation of each compound was 1 ng/mL. Pharmacokinetic parameters were determined by non-compartmental analysis using WinNonlin 6.2 software.

The mark [5] stands for this setting: human liver microsomes, 0.1 μM compound, 0.1 mg/mL microsomal protein, up to 60 minutes, read-out: Half-life (minutes) Experiment 1.
The mark [6] stands for this setting: 0.1 μM compound, 0.1 mg/mL microsomal protein, up to 60 minutes, read-out: Half-life (minutes) Experiment 2.
Where [7] appears, read: same conditions, different lot of human liver microsomes, read-out: average half-life.
The mark [8] stands for this setting: rats, relative to etifoxine hydrochloride.

Structures can show the parent of a compound that is named as a salt.

`[2H]C([2H])([2H])C([2H])([2H])NC1=Nc2ccc(Cl)cc2C(C)(c2ccccc2)O1` (stereo not drawn) [Example 1, 6-chloro-N-(ethyl-d5)-4-methyl-4-phenyl-4H-3,1-benzoxazin-2-amine]: the “half-life longer than that of etifoxine” value in data set [1] (human liver microsomes, relative to etifoxine) is recorded as “about 86%”; in data set [2] (relative to etifoxine) it was “about 75%”. Besides, the half-life at 0.1 μM in data set [1] (setting [5]) worked out at 39.7 min; in data set [1] (human liver microsomes, 0.1 μM compound, 0.1 mg/mL microsomal protein, up to 60 minutes, read-out: Half-life (minutes) Experiment 2), 41.8 min; in data set [1] (human liver microsomes, average of experiments 1 and 2, read-out: Half-life (minutes) Average) it was 41 min; in data set [2] (0.1 μM compound, 0.1 mg/mL microsomal protein, up to 60 minutes, read-out: Half-life (minutes) Experiment 1) it was 13.8 min; in data set [2] (setting [6]), 13.8 min; in data set [2] (average of experiments 1 and 2, read-out: Half-life (minutes) Average) it was 14 min.

Take `CCNC1=Nc2ccc(Cl)cc2C(C)(c2ccccc2)O1` (stereo not drawn) [Etifoxine, 6-chloro-2-(ethylamino)-4-methyl-4-phenyl-4H-3,1-benzoxazine]: in data set [1] (human liver microsomes, 0.1 μM compound, 0.1 mg/mL microsomal protein, up to 60 minutes), the “Half-life (minutes) Experiment 2” value is 21.9 min. Besides, the values for the half-life at 0.1 μM in data set [1] (setting [5]) and in data set [2] (setting [6]) were 23 min and 7.4 min, respectively. Further, the half-life in humans in data set [3] was 240 to 360 min. Besides, in data set [2] (0.1 μM compound, 0.1 mg/mL microsomal protein, up to 60 minutes), the “Half-life (minutes) Experiment 1” value is 7.7 min.

Consider `[2H]c1c([2H])c([2H])c(C2(C)OC(NCC)=Nc3ccc(Cl)cc32)c([2H])c1[2H]` (stereo not drawn) [Example 6, 6-chloro-N-ethyl-4-methyl-4-(phenyl-d5)-4H-3,1-benzoxazin-2-amine], for which, in data set [1] (setting [7]), the half-life at 0.1 μM came to 18 min.

In the case of `[2H]C([2H])([2H])C1(c2ccccc2)OC(NCC)=Nc2ccc(Cl)cc21` (stereo not drawn) [Example 7, 6-chloro-N-ethyl-4-(methyl-d3)-4-phenyl-4H-3,1-benzoxazin-2-amine], in data set [1] (setting [7]), the half-life at 0.1 μM is 18 min.

For the compound `[2H]C([2H])([2H])C([2H])([2H])NC1=Nc2ccc(Cl)cc2C(C)(c2ccccc2)O1` (stereo not drawn) [Example 1 hydrochloride, 6-chloro-N-(ethyl-d5)-4-methyl-4-phenyl-4H-3,1-benzoxazin-2-amine], in data set [4] (setting [8]), the “AUC0-12 greater than etifoxine hydrochloride” value turned out to be 2.5 times and the “Cmax greater than etifoxine hydrochloride” value was 1.7 times. In data set [4], the Cmax came to 1930 ng/mL and the AUC(0-t) came to 8340 ng·h/mL.

In the case of `CCNC1=Nc2ccc(Cl)cc2C(C)(c2ccccc2)O1` (stereo not drawn) [Etifoxine hydrochloride, 6-chloro-2-(ethylamino)-4-methyl-4-phenyl-4H-3,1-benzoxazine, reference compound], in data set [4], the peak level (Cmax) was 1140 ng/mL and the AUC(0-t) was determined as 3380 ng·h/mL.
